Tests used:
lambsquarters = experiment: Test C pre-/postemergence herbicide test; format: in vivo, Chenopodium album
Summary of the method: (§1)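 Visual rating, 0 (no effect) to 100 (complete control), versus untreated controls after 13 to 15 days in the greenhouse. Pre: seeds in loam/sand, sprayed at planting. Post: 1- to 4-leaf plants (2 to 18 cm) in peat-based mix. Compounds in non-phytotoxic solvent plus surfactant.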

soybean = experiment: Test C pre-/postemergence herbicide test; format: in vivo, Glycine max
Summary of the method: as §1

ryegrass, Italian = experiment: Test C pre-/postemergence herbicide test; format: in vivo, Lolium multiflorum
Summary of the method: as §1

corn [1] = experiment: Test A pre-/postemergence herbicide test; format: in vivo, Zea mays
Summary of the method: (§2)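 Seeds sown in loam soil/sand blend received a preemergence directed soil spray of test chemical in non-phytotoxic solvent with surfactant; postemergence plants (2–10 cm, one- to two-leaf stage) were sprayed with the same formulation. After about 10 days in greenhouse, injury was rated visually versus untreated controls, 0 (no effect) to 100 (complete control).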

corn [2] = experiment: Test C pre-/postemergence herbicide test; format: in vivo, Zea mays
Summary of the method: as §1

ducksalad = experiment: Test B flooded paddy test; format: in vivo, Heteranthera limosa; conditions: 250 g ai/ha, Flood; scale of 0 to 100 where 0 is no effect and 100 is complete control
Summary of the method: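 Scored visually 0–100 (0 no effect, 100 complete control) versus controls after 13 to 15 greenhouse days. Treatment: compound added to paddy water kept 3 cm above soil, on 2-leaf-stage plants.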

giant foxtail = experiment: Test A pre-/postemergence herbicide test; format: in vivo, Setaria faberii
Summary of the method: as §2

barnyardgrass [3] = experiment: Test A pre-/postemergence herbicide test; format: in vivo, Echinochloa crus-galli
Summary of the method: as §2

nutsedge, yellow = experiment: Test C pre-/postemergence herbicide test; format: in vivo, Cyperus esculentus
Summary of the method: as §1

barnyardgrass [4] = experiment: Test C pre-/postemergence herbicide test; format: in vivo, Echinochloa crus-galli
Summary of the method: as §1

waterhemp = experiment: Test C pre-/postemergence herbicide test; format: in vivo, Amaranthus rudis
Summary of the method: as §1

[5] = Preemergence, 62 g ai/ha, scale 0 to 100
[6] = Preemergence, 125 g ai/ha, scale 0 to 100 (0 no effect, 100 complete control)
[7] = Postemergence, 1000 g ai/ha, 0 to 100 scale (0 no effect, 100 complete control)
[8] = Preemergence, 1000 g ai/ha, visual rating on 0 to 100 scale (0 no effect, 100 complete control), approx. 10 days
[9] = Preemergence, 31 g ai/ha, scale 0 to 100 (0 no effect, 100 complete control)
[10] = Preemergence, 250 g ai/ha, scale 0 to 100 (0 no effect, 100 complete control)
[11] = Postemergence, 31 g ai/ha, scale 0 (no effect) to 100 (complete control)
[12] = Postemergence, 62 g ai/ha, scale 0 to 100 (0 no effect, 100 complete control)
[13] = Postemergence, 125 g ai/ha, scale 0 to 100 (0 no effect, 100 complete control)
[14] = Postemergence, 250 g ai/ha, scale 0 to 100 (0 no effect, 100 complete control)
[15] = Postemergence, 8 g ai/ha, scale 0 to 100 (0 no effect, 100 complete control)
[16] = Postemergence, 16 g ai/ha, scale 0 to 100 (0 no effect, 100 complete control)
[17] = Postemergence, 31 g ai/ha, scale 0 to 100 (0 no effect, 100 complete control)
[18] = Postemergence, 62 g ai/ha, scale 0 (no effect) to 100 (complete control)
[19] = Preemergence, 31 g ai/ha, scale 0 to 100, 0 is no effect and 100 is complete control
[20] = Preemergence, 62 g ai/ha, scale 0 to 100 (0 no effect, 100 complete control)
[21] = Preemergence, 8 g ai/ha, scale 0 to 100
[22] = Preemergence, 16 g ai/ha, scale 0 to 100
[23] = Postemergence, 125 g ai/ha, 0 to 100 scale, 0 is no effect, 100 is complete control
[24] = Postemergence, 500 g ai/ha, 0 to 100 scale (0 no effect, 100 complete control)
[25] = Preemergence, 125 g ai/ha, 0 to 100 scale where 0 is no effect and 100 is complete control
[26] = preemergence, 500 g ai/ha, 0 to 100 scale, 0 is no effect and 100 is complete control

O=C1NCC(c2cc(F)c(F)c(F)c2)C1C(=O)Nc1ccccc1C(F)(F)F (racemic) [Compound 33]
Plant response rating, Lambsquarters (lambsquarters; [5]): 0 | Plant response rating, Lambsquarters (lambsquarters; [6]): 25 | Plant response rating, Soybean (soybean; [6]): 0 | Plant response rating, Ryegrass, Italian (ryegrass, Italian; [5]): 0 | Plant response rating, Ryegrass, Italian (ryegrass, Italian; [6]): 0 | Plant response rating, Corn (corn [1]; [7]): 40 | Plant response rating, Corn (corn [1]; [8]): 0 | Corn plant response rating (corn [2]; [9]): 0 | Plant response rating, Corn (corn [2]; [5]): 10 | Plant response rating, Corn (corn [2]; [6]): 20 | Plant response rating, Corn (corn [2]; [10]): 30 | Plant response rating, Ducksalad (ducksalad): 100 | Plant response rating, Foxtail, Giant (giant foxtail; [7]): 90 | Plant response rating, Foxtail, Giant (giant foxtail; [8]): 90 | Plant response rating, Barnyardgrass (barnyardgrass [3]; [7]): 90 | Plant response rating, Barnyardgrass (barnyardgrass [3]; [8]): 90 | Plant response rating, Nutsedge, Yellow (nutsedge, yellow; [5]): 10

O=C1NCC(c2cc(F)c(F)c(F)c2)C1C(=O)Nc1ccccc1F (racemic) [Compound 34]
Plant response rating, Lambsquarters (lambsquarters; [11]): 0 | Plant response rating, Lambsquarters (lambsquarters; [12]): 0 | Plant response rating, Lambsquarters (lambsquarters; [13]): 10 | Plant response rating, Lambsquarters (lambsquarters; [14]): 55 | Plant response rating, Lambsquarters (lambsquarters; [5]): 40 | Plant response rating, Lambsquarters (lambsquarters; [6]): 80 | Plant response rating, Soybean (soybean; [11]): 0 | Plant response rating, Soybean (soybean; [12]): 0 | Plant response rating, Soybean (soybean; [13]): 5 | Plant response rating, Soybean (soybean; [14]): 10 | Plant response rating, Soybean (soybean; [5]): 0 | Plant response rating, Soybean (soybean; [6]): 5 | Plant response rating, Ryegrass, Italian (ryegrass, Italian; [11]): 0 | Plant response rating, Ryegrass, Italian (ryegrass, Italian; [12]): 0 | Plant response rating, Ryegrass, Italian (ryegrass, Italian; [13]): 0 | Plant response rating, Ryegrass, Italian (ryegrass, Italian; [14]): 0 | Plant response rating, Ryegrass, Italian (ryegrass, Italian; [5]): 0 | Plant response rating, Ryegrass, Italian (ryegrass, Italian; [6]): 20 | Plant response rating, Corn (corn [1]; [7]): 50 | Plant response rating, Corn (corn [1]; [8]): 30 | Plant response rating, Corn (corn [2]; [11]): 0 | Plant response rating, Corn (corn [2]; [12]): 0 | Plant response rating, Corn (corn [2]; [13]): 0 | Plant response rating, Corn (corn [2]; [14]): 0 | Corn plant response rating (corn [2]; [9]): 0 | Plant response rating, Corn (corn [2]; [5]): 0 | Plant response rating, Corn (corn [2]; [6]): 0 | Plant response rating, Corn (corn [2]; [10]): 10 | Plant response rating, Ducksalad (ducksalad): 95 | Plant response rating, Foxtail, Giant (giant foxtail; [7]): 90 | Plant response rating, Foxtail, Giant (giant foxtail; [8]): 90 | Plant response rating, Barnyardgrass (barnyardgrass [3]; [7]): 90 | Plant response rating, Barnyardgrass (barnyardgrass [3]; [8]): 90 | Plant response rating, Nutsedge, Yellow (nutsedge, yellow; [11]): 5 | Plant response rating, Nutsedge, Yellow (nutsedge, yellow; [12]): 5 | Plant response rating, Nutsedge, Yellow (nutsedge, yellow; [13]): 10 | Plant response rating, Nutsedge, Yellow (nutsedge, yellow; [14]): 10 | Plant response rating, Nutsedge, Yellow (nutsedge, yellow; [5]): 0 | Plant response rating, Nutsedge, Yellow (nutsedge, yellow; [6]): 0

CN1CC(c2ccc(F)cc2)C(C(=O)Nc2cccc(F)c2F)C1=O (centres unmarked) [Compound 271]
Plant response rating, Lambsquarters (lambsquarters; [15]): 10 | Plant response rating, Lambsquarters (lambsquarters; [16]): 45 | Plant response rating, Lambsquarters (lambsquarters; [17]): 50 | Plant response rating, Lambsquarters (lambsquarters; [18]): 55 | Lambsquarters plant response rating (lambsquarters; [19]): 0 | Lambsquarters plant response rating (lambsquarters; [20]): 20 | Plant response rating, Lambsquarters (lambsquarters; [21]): 0 | Plant response rating, Lambsquarters (lambsquarters; [22]): 0 | Plant response rating, Soybean (soybean; [15]): 5 | Plant response rating, Soybean (soybean; [16]): 45 | Plant response rating, Soybean (soybean; [17]): 15 | Plant response rating, Soybean (soybean; [18]): 60 | Soybean plant response rating (soybean; [19]): 0 | Soybean plant response rating (soybean; [20]): 0 | Plant response rating, Soybean (soybean; [21]): 0 | Plant response rating, Soybean (soybean; [22]): 0 | Plant response rating, Ryegrass, Italian (ryegrass, Italian; [15]): 0 | Plant response rating, Ryegrass, Italian (ryegrass, Italian; [16]): 0 | Plant response rating, Ryegrass, Italian (ryegrass, Italian; [17]): 0 | Plant response rating, Ryegrass, Italian (ryegrass, Italian; [18]): 0 | Ryegrass, Italian plant response rating (ryegrass, Italian; [19]): 0 | Ryegrass, Italian plant response rating (ryegrass, Italian; [20]): 10 | Plant response rating, Ryegrass, Italian (ryegrass, Italian; [21]): 0 | Plant response rating, Ryegrass, Italian (ryegrass, Italian; [22]): 0 | Plant response rating, Barnyardgrass (barnyardgrass [4]; [15]): 0 | Plant response rating, Barnyardgrass (barnyardgrass [4]; [16]): 0 | Plant response rating, Barnyardgrass (barnyardgrass [4]; [17]): 0 | Plant response rating, Barnyardgrass (barnyardgrass [4]; [18]): 0 | Barnyardgrass plant response rating (barnyardgrass [4]; [19]): 90 | Barnyardgrass plant response rating (barnyardgrass [4]; [20]): 95 | Plant response rating, Barnyardgrass (barnyardgrass [4]; [21]): 0 | Plant response rating, Barnyardgrass (barnyardgrass [4]; [22]): 75 | Plant response rating, Corn (corn [1]; [23]): 20 | Plant response rating, Corn (corn [1]; [24]): 60 | Plant response rating, Corn (corn [2]; [15]): 0 | Plant response rating, Corn (corn [2]; [16]): 0 | Plant response rating, Corn (corn [2]; [17]): 0 | Plant response rating, Corn (corn [2]; [18]): 0 | Corn plant response rating (corn [2]; [19]): 0 | Corn plant response rating (corn [2]; [20]): 0 | Plant response rating, Corn (corn [2]; [21]): 0 | Plant response rating, Corn (corn [2]; [22]): 0 | Plant response rating, Foxtail, Giant (giant foxtail; [23]): 90 | Plant response rating, Foxtail, Giant (giant foxtail; [24]): 90 | Plant response rating, Foxtail, Giant (giant foxtail; [25]): 90 | Plant response rating, Foxtail, Giant (giant foxtail; [26]): 90 | Plant response rating, Barnyardgrass (barnyardgrass [3]; [23]): 90 | Plant response rating, Barnyardgrass (barnyardgrass [3]; [24]): 90 | Plant response rating, Barnyardgrass (barnyardgrass [3]; [25]): 90 | Plant response rating, Barnyardgrass (barnyardgrass [3]; [26]): 90 | Plant response rating, Nutsedge, Yellow (nutsedge, yellow; [15]): 0 | Plant response rating, Nutsedge, Yellow (nutsedge, yellow; [16]): 0 | Plant response rating, Nutsedge, Yellow (nutsedge, yellow; [17]): 0 | Plant response rating, Nutsedge, Yellow (nutsedge, yellow; [18]): 0 | Nutsedge, Yellow plant response rating (nutsedge, yellow; [19]): 0 | Nutsedge, Yellow plant response rating (nutsedge, yellow; [20]): 0 | Plant response rating, Nutsedge, Yellow (nutsedge, yellow; [21]): 0 | Plant response rating, Nutsedge, Yellow (nutsedge, yellow; [22]): 0 | Plant response rating, Waterhemp (waterhemp; [15]): 0 | Plant response rating, Waterhemp (waterhemp; [16]): 0 | Plant response rating, Waterhemp (waterhemp; [17]): 0 | Plant response rating, Waterhemp (waterhemp; [18]): 5 | Waterhemp plant response rating (waterhemp; [19]): 0 | Waterhemp plant response rating (waterhemp; [20]): 35 | Plant response rating, Waterhemp (waterhemp; [21]): 0 | Plant response rating, Waterhemp (waterhemp; [22]): 0

Reference: patent US10294202B2, “Pyrrolidinones as herbicides” (FMC Corporation, priority 2013, dated 2019)
